Patent US5278152A, “2-formylbenzylphosphonic acid derivatives useful for the treatment of diseases caused by viruses” (priority 1989, dated 1994)
Values joined by “and” are separate entries in the source; they are usually repeats but may differ in a detail not shown here. Equal values may be shown once. Where a name gives a salt, the structure may show the parent alone. Read-outs that look alike come from different tables or passages of the source.

What was measured:
influenza A2 = format: in vivo, NMRI mice; details: twice daily over 2.5 days; for Number of surviving animals: groups of 5 mice
viruses = details: literature; cited from earlier work
Herpes simplex Type 1 = Herpes simplex Type 1 infection of NMRI mice, survival; format: in vivo; details: twice daily over 2.5 days; for Surviving animals: groups of 5 mice
Experimental: Pathogen-free NMRI mice having a weight of about 15 g were infected intraperitoneally with Herpes simplex Type 1 and then treated intraperitoneally, orally or subcutaneously with the compounds mentioned in Table 1. The treatment was carried out twice daily over the course of 2.5 days, starting after infection. The result of treatment was determined on the basis of the course of the disease and the survival rate compared to the untreated infection controls. The controls received a water-solublemethylhydroxyethylcellulose (viscosity […], administered in 2% strength solution) instead of the compounds to be tested. The experiments were carried out using groups of 5 mice each per preparation.
The chemotherapeutic action of the compound A can be seen from Table 1.

[1] = test system: myxoviruses (influenza A2); experiment: microbe, parasite or virus in culture; format: cell-based, influenza A2 virus in Hela and Vero cells; details: read-out: MIC (minimum inhibitory concentration)
in vitro = details: hela and vero cells
[2] = literature; cited from earlier work

## NC12CC3CC(CC(C3)C1)C2 [Amantadine, reference compound]
Influenza A2; po, 80 mg/kg
  Average survival time: 8.0 days
Influenza A2; po, 80 mg/kg, 80 mg/kg
  Number of surviving animals: 5 and 4
Influenza A2; sc, 80 mg/kg
  Number of surviving animals: 5

## O=C(O)CP(=O)(O)O [PAA, phosphonoacetic acid]
viruses
  antiviral activity: exhibit antiviral activity

## CCOP(=O)(O)Cc1ccccc1C=O [C, monoethyl 2-formylbenzylphosphonate triethylammonium salt]
Herpes simplex Type 1; po, 3 mg/kg
  Average survival time: 9.0 days
  Surviving animals: 4
Herpes simplex Type 1; po, 10 mg/kg
  Average survival time: 8.0 days
  Surviving animals: 3
Herpes simplex Type 1; po, 30 mg/kg
  Average survival time: 8.3 days
  Surviving animals: 1
Herpes simplex Type 1; sc, 3 mg/kg
  Average survival time: 8.5 days
  Surviving animals: 1
Herpes simplex Type 1; sc, 10 mg/kg
  Average survival time: 8.0 days
  Surviving animals: 3
Herpes simplex Type 1; sc, 30 mg/kg
  Average survival time: 10.0 days
  Surviving animals: 4
[1]
  MIC: 44.4 µg/mL
Influenza A2; po, 0.25 mg/kg
  Number of surviving animals: 5
Influenza A2; po, 2.5 mg/kg
  Average survival time: 6.0 days
  Number of surviving animals: 2
Influenza A2; po, 25 mg/kg
  Number of surviving animals: 5
Influenza A2; sc, 0.25 mg/kg
  Number of surviving animals: 5
Influenza A2; sc, 2.5 mg/kg
  Number of surviving animals: 5
Influenza A2; sc, 25 mg/kg
  Average survival time: 7.5 days
  Number of surviving animals: 3
In vitro
  MNTC: > 400 µg/mL

## CCOP(=O)(Cc1ccccc1C=NNC(=O)c1cccnc1)OCC [E, Diethyl 2-formylbenzylphosphonate nicotinic acid hydrazone]
Influenza A2; po, 0.25 mg/kg
  Average survival time: 8.0 days
  Number of surviving animals: 4
Influenza A2; po, 2.5 mg/kg
  Average survival time: 6.7 days
  Number of surviving animals: 3
Influenza A2; po, 25 mg/kg
  Average survival time: 6.0 days
  Number of surviving animals: 3

## CCOP(=O)(Cc1ccccc1C=O)OCC [A, diethyl 2-formylbenzylphosphonate]
Herpes simplex Type 1; ip, 3 mg/kg
  Average survival time: 8.0 days
  Surviving animals: 0
Herpes simplex Type 1; ip, 10 mg/kg
  Average survival time: 9.0 days
  Surviving animals: 4
Herpes simplex Type 1; ip, 30 mg/kg
  Average survival time: 8.5 days
  Surviving animals: 3
Herpes simplex Type 1; po, 2.5 mg/kg
  Average survival time: 8.0 days
  Surviving animals: 4
Herpes simplex Type 1; po, 25 mg/kg
  Surviving animals: 5
Herpes simplex Type 1; po, 250 mg/kg
  Average survival time: 8.0 days
  Surviving animals: 4
Herpes simplex Type 1; sc, 2.5 mg/kg
  Average survival time: 9.0 days
  Surviving animals: 2
Herpes simplex Type 1; sc, 25 mg/kg
  Average survival time: 7.2 days
  Surviving animals: 0
Herpes simplex Type 1; sc, 250 mg/kg
  Average survival time: 8.4 days
  Surviving animals: 0
Influenza A2; po, 2.5 mg/kg
  Average survival time: 9.0 days
  Number of surviving animals: 4
Influenza A2; po, 3 mg/kg
  Average survival time: 8.0 days
  Number of surviving animals: 4
Influenza A2; po, 10 mg/kg
  Average survival time: 7.0 days
  Number of surviving animals: 4
Influenza A2; po, 25 mg/kg
  Average survival time: 6.3 days
  Number of surviving animals: 2
Influenza A2; po, 30 mg/kg
  Average survival time: 7.3 days
  Number of surviving animals: 2
Influenza A2; sc, 2.5 mg/kg
  Average survival time: 6.7 days
  Number of surviving animals: 2
Influenza A2; sc, 25 mg/kg
  Average survival time: 7.0 days
  Number of surviving animals: 3

## CCOP(=O)(Cc1ccccc1C1O[C@H](c2ccccc2)[C@H](C)N1C)OCC (single isomer, unassigned) [F, Diethyl 2-(3,4-dimethyl-5-phenyloxazolidin-2-yl)benzylphosphonate]
Influenza A2; po, 0.25 mg/kg
  Average survival time: 6.5 days
  Number of surviving animals: 3
Influenza A2; po, 2.5 mg/kg
  Average survival time: 6.5 days
  Number of surviving animals: 3
Influenza A2; po, 25 mg/kg
  Average survival time: 7.0 days
  Number of surviving animals: 2

## CCOP(=O)(Cc1ccccc1C=NNC(N)=S)OCC [D, Diethyl 2-formylbenzylphosphonate thiosemicarbazone]
Influenza A2; po, 0.25 mg/kg
  Average survival time: 8.0 days
  Number of surviving animals: 4
Influenza A2; po, 2.5 mg/kg
  Average survival time: 7.0 days
  Number of surviving animals: 1
Influenza A2; po, 25 mg/kg
  Average survival time: 7.3 days
  Number of surviving animals: 2

## O=C(O)P(=O)(O)O [PFA, phosphonoformic acid]
viruses
  antiviral activity: wide antiviral spectrum
[2]
  toxic side effects: some toxic side effects

## O=Cc1ccccc1CP(=O)(O)O [B, 2-formylbenzylphosphonic acid di(triethylammonium) salt]
Herpes simplex Type 1; po, 3 mg/kg
  Average survival time: 7.0 days
  Surviving animals: 3
Herpes simplex Type 1; po, 10 mg/kg
  Average survival time: 8.3 days
  Surviving animals: 2
Herpes simplex Type 1; po, 30 mg/kg
  Average survival time: 6.0 days
  Surviving animals: 3
Herpes simplex Type 1; sc, 3 mg/kg
  Average survival time: 7.8 days
  Surviving animals: 2
Herpes simplex Type 1; sc, 10 mg/kg
  Average survival time: 7.0 days
  Surviving animals: 3
Herpes simplex Type 1; sc, 30 mg/kg
  Average survival time: 6.5 days
  Surviving animals: 3
[1]
  MIC: 4.94 µg/mL
Influenza A2; po, 1.5 mg/kg
  Average survival time: 8.5 days
  Number of surviving animals: 3
Influenza A2; po, 15 mg/kg
  Number of surviving animals: 5
Influenza A2; po, 150 mg/kg
  Average survival time: 7.0 days
  Number of surviving animals: 3
Influenza A2; sc, 1.5 mg/kg
  Average survival time: 8.5 days
  Number of surviving animals: 1
Influenza A2; sc, 15 mg/kg
  Average survival time: 8.0 days
  Number of surviving animals: 4
In vitro
  MNTC: > 400 µg/mL

## O=P(O)(O)CP(=O)(O)O [MDP, methylenediphosphonic acid]
viruses
  antiviral activity: exhibit antiviral activity
